Assay results taken from US7569570B2, “Thienopyrimidines, process for preparing the same and use thereof” (Takeda Pharmaceutical Company Limited, priority 2002, dated 2009).

melting point [°C]	Compound
163 to 165	CCNC(=O)Nc1ccc(-c2sc3c(c2CN(C)CCC(=O)NC)c(=O)n(-c2ccc(OCCOC)cc2)c(=O)n3Cc2c(F)cccc2F)cc1 [Example 31]
153 to 155	CCNC(=O)Nc1ccc(-c2sc3c(c2CN(C)CCN2CCOC2=O)c(=O)n(-c2ccccc2)c(=O)n3Cc2c(F)cccc2F)cc1 [Example 24]
186 to 188	CCNC(=O)Nc1ccc(-c2sc3c(c2CN(C)CCNS(C)(=O)=O)c(=O)n(-c2ccccc2)c(=O)n3Cc2c(F)cccc2F)cc1 [Example 22, N-{2-[{[1-(2,6-difluorobenzyl)-6-(4-{[(ethylamino)carbonyl]amino}phenyl)-2,4-dioxo-3-phenyl-1,2,3,4-tetrahydrothieno[2,3-d]pyrimidin-5-yl]methyl}(methyl)amino]ethyl}methanesulfonamide]
191 to 193	CCNC(=O)Nc1ccc(-c2sc3c(c2CN(C)CCCC(=O)N(C)C)c(=O)n(-c2ccccc2)c(=O)n3Cc2c(F)cccc2F)cc1 [Example 18, 4-[{[1-(2,6-difluorobenzyl)-6-(4-{[(ethylamino)carbonyl]amino}phenyl)-2,4-dioxo-3-phenyl-1,2,3,4-tetrahydrothieno[2,3-d]pyrimidin-5-yl]methyl}(methyl)amino]-N,N-dimethylbutane amide]
223 to 225	CCNC(=O)Nc1ccc(-c2sc3c(c2CN(C)CCOC)c(=O)n(-c2ccc(OCc4ccccc4)cc2)c(=O)n3Cc2c(F)cccc2F)cc1 [Example 102]
210 to 212	CCNC(=O)Nc1ccc(-c2sc3c(c2CN(C)CCC(=O)N(C)C)c(=O)n(-c2ccc(F)cc2)c(=O)n3Cc2c(F)cccc2F)cc1 [Example 32]
211 to 213	CCNC(=O)Nc1ccc(-c2sc3c(c2CNCCOCC)c(=O)n(-c2ccccc2)c(=O)n3Cc2c(F)cccc2F)cc1 [Example 3]
180 to 181	CCNC(=O)Nc1ccc(-c2sc3c(c2CN(C)CCN(C)C(C)=O)c(=O)n(-c2ccccc2)c(=O)n3Cc2c(F)cccc2F)cc1 [Example 27, N-{2-[{[1-(2,6-difluorobenzyl)-6-(4-{[(ethylamino)carbonyl]amino}phenyl)-2,4-dioxo-3-phenyl-1,2,3,4-tetrahydrothieno[2,3-d]pyrimidin-5-yl]methyl}(methyl)amino]ethyl}-N-methylacetamide]
236 to 237	CCNC(=O)Nc1ccc(-c2sc3c(c2CN(C)CCC(=O)N(C)C)c(=O)n(-c2ccccc2)c(=O)n3Cc2c(F)cccc2F)cc1 [Example 10, 3-[{[1-(2,6-difluorobenzyl)-6-(4-{[(ethylamino)carbonyl]amino}phenyl)-2,4-dioxo-3-phenyl-1,2,3,4-tetrahydrothieno[2,3-d]pyrimidin-5-yl]methyl}(methyl)amino]-N,N-dimethylpropanamide]
218 to 220	CCNC(=O)Nc1ccc(-c2sc3c(c2CN(C)CCOC)c(=O)n(-c2ccc(NC(C)=O)cc2)c(=O)n3Cc2c(F)cccc2F)cc1 [Example 98, N-[4-(3-(4-acetoaminophenyl)-1-(2,6-difluorobenzyl)-5-{[2-methoxyethyl(methyl)amino]methyl}-2,4-dioxo-1,2,3,4-tetrahydrothieno[2,3-d]pyrimidin-6-yl)phenyl]-N′-ethylurea]
151 to 153	CCNC(=O)Nc1ccc(-c2sc3c(c2CN(C)CCN(C)Cc2ccccc2)c(=O)n(-c2ccccc2)c(=O)n3Cc2c(F)cccc2F)cc1 [Example 25, N-{4-[5-{[{2-[benzyl(methyl)amino]ethyl}(methyl)amino]methyl}-1-(2,6-difluorobenzyl)-2,4-dioxo-3-phenyl-1,2,3,4-tetrahydrothieno[2,3-d]pyrimidin-6-yl]phenyl}-N′-ethylurea]
198 to 200	CCNC(=O)Nc1ccc(-c2sc3c(c2CN(C)CCC(=O)OCC)c(=O)n(-c2ccccc2)c(=O)n3Cc2c(F)cccc2F)cc1 [Example 4, ethyl 3-[{[1-(2,6-difluorobenzyl)-6-(4-{[(ethylamino)carbonyl]amino}phenyl)-2,4-dioxo-3-phenyl-1,2,3,4-tetrahydrothieno[2,3-d]pyrimidin-5-yl]methyl}(methyl)amino]propanate]
208 to 210	CCNC(=O)Nc1ccc(-c2sc3c(c2CN(C)C(C)C)c(=O)n(-c2ccccc2)c(=O)n3Cc2c(F)cccc2F)cc1 [Example 92, N-[4-(1-(2,6-difluorobenzyl)-5-{[isopropyl (methyl)amino]methyl}-2,4-dioxo-3-phenyl-1,2,3,4-tetrahydrothieno[2,3-d]pyrimidin-6-yl)phenyl]-N′-ethylurea]
203 to 205	CCNC(=O)Nc1ccc(-c2sc3c(c2CNC)c(=O)n(-c2ccc(OCCOC)cc2)c(=O)n3Cc2c(F)cccc2F)cc1 [Example 28, N-(4-{1-(2,6-difluorobenzyl)-3-[4-(2-methoxyethoxy)phenyl]-5-[(methylamino)methyl]-2,4-dioxo-1,2,3,4-tetrahydrothieno[2,3-d]pyrimidin-6-yl}phenyl)-N′-ethylurea]
240 to 244	CCNC(=O)Nc1ccc(-c2sc3c(c2CN(C)CCC(=O)N2CCCC2)c(=O)n(-c2ccccc2)c(=O)n3Cc2c(F)cccc2F)cc1 [Example 94, N-{4-[1-(2,6-difluorobenzyl)-5-({methyl[3-oxo-3-(1-pyrrolidinyl)propyl]amino}methyl)-2,4-dioxo-3-phenyl-1,2,3,4-tetrahydrothieno[2,3-d]pyrimidin-6-yl]phenyl}-N′-ethylurea]
203 to 204	CCNC(=O)Nc1ccc(-c2sc3c(c2CN(C)CCCC(=O)OCC)c(=O)n(-c2ccccc2)c(=O)n3Cc2c(F)cccc2F)cc1 [Example 6, ethyl 4-[{[1-(2,6-difluorobenzyl)-6-(4-{[(ethylamino)carbonyl]amino}phenyl)-2,4-dioxo-3-phenyl-1,2,3,4-tetrahydrothieno[2,3-d]pyrimidin-5-yl]methyl}(methyl)amino]butanate]
185 to 186	CCNC(=O)Nc1ccc(-c2sc3c(c2CN(C)CCNC(C)=O)c(=O)n(-c2ccccc2)c(=O)n3Cc2c(F)cccc2F)cc1 [Example 19, N-{2-[{[1-(2,6-difluorobenzyl)-6-(4-{[(ethylamino)carbonyl]amino}phenyl)-2,4-dioxo-3-phenyl-1,2,3,4-tetrahydrothieno[2,3-d]pyrimidin-5-yl]methyl}(methyl)amino]ethyl}acetamide]
228 to 230	CCNC(=O)Nc1ccc(-c2sc3c(c2CN(C)CCN(C)S(C)(=O)=O)c(=O)n(-c2ccc(F)cc2)c(=O)n3Cc2c(F)cccc2F)cc1 [Example 37, N-{2-[{[1-(2,6-difluorobenzyl)-6-(4-{[(ethylamino)carbonyl]amino}phenyl)-3-(4-fluorophenyl)-2,4-dioxo-1,2,3,4-tetrahydrothieno[2,3-d]pyrimidin-5-yl]methyl}(methyl)amino]ethyl}-N-methylsulfonamide]
192 to 193	CCNC(=O)Nc1ccc(-c2sc3c(c2CN(C)CCNC)c(=O)n(-c2ccccc2)c(=O)n3Cc2c(F)cccc2F)cc1 [Example 26, N-{4-[1-(2,6-difluorobenzyl)-5-({methyl[2-(methylamino)ethyl]amino}methyl)-2,4-dioxo-3-phenyl-1,2,3,4-tetrahydrothieno[2,3-d]pyrimidin-6-yl)phenyl}-N′-ethylurea]
221 to 223	CCNC(=O)Nc1ccc(-c2sc3c(c2CNCCOC)c(=O)n(-c2ccccc2)c(=O)n3Cc2c(F)cccc2F)cc1 [Example 2, N-[4-(1-(2,6-difluorobenzyl)-5-{[(2-methoxyethyl)amino]methyl}-2,4-dioxo-3-phenyl-1,2,3,4-tetrahydrothieno[2,3-d]pyrimidin-6-yl)phenyl]-N′-ethylurea]
215 to 218	CCNC(=O)Nc1ccc(-c2sc3c(c2CN(C)CCC(=O)N(C)C)c(=O)n(-c2ccc(OCCOC)cc2)c(=O)n3Cc2c(F)cccc2F)cc1 [Example 100, 3-[({1-2,6-(difluorobenzyl)-6-(4-{[(ethylamino)carbonyl]amino}phenyl)-3-[4-(2-methoxyethoxy)phenyl]-2,4-dioxo-1,2,3,4-tetrahydrothieno[2,3-d]pyrimidin-5-yl)methyl)(methyl)amino)-N,N-dimethylpropanamide]
175 to 177	CCNC(=O)Nc1ccc(-c2sc3c(c2CN(C)CCN2CCCC2=O)c(=O)n(-c2ccc(OCCOC)cc2)c(=O)n3Cc2c(F)cccc2F)cc1 [Example 34]
233 to 234	CCNC(=O)Nc1ccc(-c2sc3c(c2CN(C)CC2CCN(C)C2=O)c(=O)n(-c2ccc(F)cc2)c(=O)n3Cc2c(F)cccc2F)cc1 (stereo not drawn) [Example 36, N-(4-[1-(2,6-difluorobenzyl)-3-(4-fluorophenyl)-5-({methyl[(1-methyl-2-oxo-3-pyrrolidinyl)methyl]amino}methyl)-2,4-dioxo-1,2,3,4-tetrahydrothieno[2,3-d]pyrimidin-6-yl]phenyl}-N′-ethylurea]
197 to 199	CCNC(=O)Nc1ccc(-c2sc3c(c2CN(C)CCN(C)S(C)(=O)=O)c(=O)n(-c2ccc(OCCOC)cc2)c(=O)n3Cc2c(F)cccc2F)cc1 [Example 38, N-{2-[({1-2,6-(difluorobenzyl)-6-(4-{[(ethylamino)carbonyl]amino}phenyl)-3-[4-(2-methoxyethoxy)phenyl]-2,4-dioxo-1,2,3,4-tetrahydrothieno[2,3-d]pyrimidin-5-yl)methyl)(methyl)amino)ethyl)-N-methylsulfonamide]
222 to 225	CCNC(=O)Nc1ccc(-c2sc3c(c2CN(C)CCOC)c(=O)n(-c2ccc(OCCOC)c(OCCOC)c2)c(=O)n3Cc2c(F)cccc2F)cc1 [Example 105]
216 to 218	CCNC(=O)Nc1ccc(-c2sc3c(c2CN(C)CCN(C)S(C)(=O)=O)c(=O)n(-c2ccccc2)c(=O)n3Cc2c(F)cccc2F)cc1 [Example 23, N-{2-[{[1-(2,6-difluorobenzyl)-6-(4-{[(ethylamino)carbonyl]amino)phenyl)-2,4-dioxo-3-phenyl-1,2,3,4-tetrahydrothieno[2,3-d]pyrimidin-5-yl]methyl}(methyl)amino]ethyl}-N-methylmethanesulfonamide]
140 to 142	CCNC(=O)Nc1ccc(-c2sc3c(c2CN(C)CCN2CCCC2=O)c(=O)n(-c2ccccc2)c(=O)n3Cc2c(F)cccc2F)cc1 [Example 20, N-{4-[1-(2,6-difluorobenzyl)-5-({methyl[2-(2-oxo-1-pyrrolidinyl)ethyl]amino}methyl)-2,4-dioxo-3-phenyl-1,2,3,4-tetrahydrothieno[2,3-d]pyrimidin-6-yl]phenyl}-N′-ethylurea]
